From patent publication US20250136578A1 (Kolm Therapeutics Inc., priority 2023, published 2025)
Where two headings read alike, the source gives them in different places.

Assays:
AR / CBP ternary complex = AR / CBP ternary complex (Homo sapiens, UniProt P10275+Q92793); assay: Ternary complex formation assay (sandwich ELISA, AR capture, CBP antibody detection) in VCaP cell lysates; type: cell-based
Summary of the method: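 Sandwich ELISA: plates were coated with anti-AR antibody (AR441) and given lysates of VCaP cells treated 1.5 h with bifunctional compound in charcoal-stripped serum. Co-captured CBP or p300 was probed with rabbit mAbs and HRP secondary. Chemifluorescent signal (ex 570/em 585) was read at 0, 5 and 15 min.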

VCaP cells = assay: VCaP growth inhibition assay (CTG); type: cell-based; details: Homo sapiens, 216 h, 30 pM R1881, 9 days
Summary of the method: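 Growth was measured by CTG luminescence after a 9-day exposure of VCaP cells to compound (final 10 fM–100 nM, fivefold steps) in the presence of 30 pM final R1881, in phenol red-free DMEM/5% CSS. IC50 values were derived by nonlinear 4-parameter regression of RLU against concentration.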

[1] = read-out: Average Ternary Complex, treated 1.5 hours, rabbit CBP or p300 antibody detection
[2] = treated 1.5 hours, rabbit CBP or p300 antibody detection, average, read-out: Average Ternary Complex

AR / CBP ternary complex, sequence (P10275 whole entry): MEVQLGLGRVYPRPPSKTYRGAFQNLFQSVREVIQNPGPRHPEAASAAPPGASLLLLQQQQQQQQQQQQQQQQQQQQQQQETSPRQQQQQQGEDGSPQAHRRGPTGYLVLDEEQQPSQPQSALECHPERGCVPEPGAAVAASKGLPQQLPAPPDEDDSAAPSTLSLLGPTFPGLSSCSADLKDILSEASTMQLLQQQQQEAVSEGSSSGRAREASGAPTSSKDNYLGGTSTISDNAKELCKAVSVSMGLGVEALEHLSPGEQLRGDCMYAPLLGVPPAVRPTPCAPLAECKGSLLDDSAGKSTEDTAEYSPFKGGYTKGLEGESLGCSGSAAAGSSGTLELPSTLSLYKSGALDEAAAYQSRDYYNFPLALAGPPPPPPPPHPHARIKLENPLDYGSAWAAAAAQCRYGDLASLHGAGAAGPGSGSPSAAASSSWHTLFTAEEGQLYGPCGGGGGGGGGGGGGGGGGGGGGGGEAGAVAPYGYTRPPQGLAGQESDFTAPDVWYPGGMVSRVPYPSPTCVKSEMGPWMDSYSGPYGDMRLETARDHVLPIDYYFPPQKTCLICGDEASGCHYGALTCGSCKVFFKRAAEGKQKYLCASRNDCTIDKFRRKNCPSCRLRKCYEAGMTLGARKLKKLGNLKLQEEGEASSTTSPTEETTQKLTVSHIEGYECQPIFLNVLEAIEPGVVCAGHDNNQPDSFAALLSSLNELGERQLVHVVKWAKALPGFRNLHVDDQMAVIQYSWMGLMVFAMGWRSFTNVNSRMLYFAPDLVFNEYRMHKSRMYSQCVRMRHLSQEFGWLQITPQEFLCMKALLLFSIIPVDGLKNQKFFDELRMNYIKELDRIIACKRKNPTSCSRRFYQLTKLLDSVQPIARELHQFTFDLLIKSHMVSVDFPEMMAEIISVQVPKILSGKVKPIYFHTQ
AR / CBP ternary complex, sequence (Q92793 2-2442): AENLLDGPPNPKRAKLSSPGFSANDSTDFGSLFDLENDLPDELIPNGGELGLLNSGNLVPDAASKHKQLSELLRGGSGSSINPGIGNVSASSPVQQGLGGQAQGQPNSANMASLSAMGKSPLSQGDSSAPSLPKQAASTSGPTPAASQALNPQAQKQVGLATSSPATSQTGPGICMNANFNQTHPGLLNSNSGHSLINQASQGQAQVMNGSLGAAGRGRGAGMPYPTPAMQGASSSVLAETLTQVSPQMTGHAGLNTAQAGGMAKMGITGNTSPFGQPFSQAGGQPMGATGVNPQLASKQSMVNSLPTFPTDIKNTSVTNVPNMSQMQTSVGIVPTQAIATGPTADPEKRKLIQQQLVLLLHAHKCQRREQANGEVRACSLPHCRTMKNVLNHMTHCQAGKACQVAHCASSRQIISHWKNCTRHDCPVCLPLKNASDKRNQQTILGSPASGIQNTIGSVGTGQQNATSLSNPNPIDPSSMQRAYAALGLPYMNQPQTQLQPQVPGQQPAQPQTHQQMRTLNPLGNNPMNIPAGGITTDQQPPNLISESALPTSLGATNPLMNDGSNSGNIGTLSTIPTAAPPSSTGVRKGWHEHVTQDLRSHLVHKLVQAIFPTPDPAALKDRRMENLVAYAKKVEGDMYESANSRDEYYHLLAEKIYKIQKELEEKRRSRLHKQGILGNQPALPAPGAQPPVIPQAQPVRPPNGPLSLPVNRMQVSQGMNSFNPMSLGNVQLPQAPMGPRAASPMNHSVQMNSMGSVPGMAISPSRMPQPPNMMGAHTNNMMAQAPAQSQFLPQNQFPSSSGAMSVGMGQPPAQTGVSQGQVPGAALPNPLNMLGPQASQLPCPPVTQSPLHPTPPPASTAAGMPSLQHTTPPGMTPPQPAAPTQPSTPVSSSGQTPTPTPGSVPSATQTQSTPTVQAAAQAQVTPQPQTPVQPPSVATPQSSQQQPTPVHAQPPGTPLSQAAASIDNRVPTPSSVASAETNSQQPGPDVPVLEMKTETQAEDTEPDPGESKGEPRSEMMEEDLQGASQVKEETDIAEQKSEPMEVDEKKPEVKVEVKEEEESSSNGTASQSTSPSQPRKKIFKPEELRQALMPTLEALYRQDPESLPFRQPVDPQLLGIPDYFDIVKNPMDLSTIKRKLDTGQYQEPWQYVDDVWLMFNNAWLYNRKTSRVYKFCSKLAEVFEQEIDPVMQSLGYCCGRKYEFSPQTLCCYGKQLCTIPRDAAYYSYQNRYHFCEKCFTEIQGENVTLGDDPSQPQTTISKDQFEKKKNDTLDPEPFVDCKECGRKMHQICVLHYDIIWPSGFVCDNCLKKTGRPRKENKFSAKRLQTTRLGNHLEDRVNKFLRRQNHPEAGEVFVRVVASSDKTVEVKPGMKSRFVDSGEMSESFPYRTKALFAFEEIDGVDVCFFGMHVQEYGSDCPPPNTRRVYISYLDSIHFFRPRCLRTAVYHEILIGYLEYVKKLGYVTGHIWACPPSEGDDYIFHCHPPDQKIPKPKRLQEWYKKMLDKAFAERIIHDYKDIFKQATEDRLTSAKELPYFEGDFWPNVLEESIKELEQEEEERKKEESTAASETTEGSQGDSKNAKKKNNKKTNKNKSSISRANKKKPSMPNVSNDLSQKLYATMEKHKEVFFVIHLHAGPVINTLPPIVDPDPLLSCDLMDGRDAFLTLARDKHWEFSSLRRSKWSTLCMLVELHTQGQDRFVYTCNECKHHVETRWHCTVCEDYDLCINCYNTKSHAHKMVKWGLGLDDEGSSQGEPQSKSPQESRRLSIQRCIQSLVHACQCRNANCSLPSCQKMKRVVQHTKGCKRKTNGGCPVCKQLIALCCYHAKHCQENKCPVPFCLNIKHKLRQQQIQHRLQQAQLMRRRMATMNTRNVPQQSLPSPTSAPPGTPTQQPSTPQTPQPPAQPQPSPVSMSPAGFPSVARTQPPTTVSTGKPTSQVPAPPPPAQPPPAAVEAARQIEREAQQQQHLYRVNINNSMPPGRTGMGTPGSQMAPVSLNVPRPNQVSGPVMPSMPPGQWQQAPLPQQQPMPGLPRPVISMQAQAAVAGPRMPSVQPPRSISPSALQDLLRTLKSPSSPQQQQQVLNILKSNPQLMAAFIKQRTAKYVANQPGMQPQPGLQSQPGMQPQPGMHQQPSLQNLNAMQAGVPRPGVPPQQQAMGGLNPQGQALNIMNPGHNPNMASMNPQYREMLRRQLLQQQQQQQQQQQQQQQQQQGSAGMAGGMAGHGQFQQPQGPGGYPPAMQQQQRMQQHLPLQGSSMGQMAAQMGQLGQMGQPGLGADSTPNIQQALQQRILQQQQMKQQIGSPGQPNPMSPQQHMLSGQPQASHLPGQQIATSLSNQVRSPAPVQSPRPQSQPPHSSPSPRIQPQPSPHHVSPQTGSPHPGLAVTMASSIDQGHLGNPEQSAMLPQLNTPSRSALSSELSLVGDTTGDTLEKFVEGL

| SMILES | EC50 (AR / CBP ternary complex; [1]) | IC50 (VCaP cells) | EC50 (AR / CBP ternary complex; [2]) |
| --- | --- | --- | --- |
| CC(=O)N1CCc2c(c(N3CCCc4cc(-c5cnn(C)c5)c(C(F)F)cc43)nn2C2CCN(CC3CC4CCC(C3)N4c3ccc(C(=O)N[C@H]4CC[C@H](Oc5ccc(C#N)c(Cl)c5)CC4)nn3)CC2)C1 (stereo partly drawn) [Compound 126, 6-[3-[[4-[5-acetyl-3-[7-(difluoromethyl)-6-(1-methylpyrazol-4-yl)-3,4-dihydro-2H-quinolin-1-yl]-6,7-dihydro-4H-pyrazolo[4,3-c]pyridin-1-yl]-1-piperidyl]methyl]-8-azabicyclo[3.2.1]octan-8-yl]-N-[4-(3-chloro-4-cyano-phenoxy)cyclohexyl]pyridazine-3-carboxamide] | < 1 nM | ≤ 0.1 nM |  |
| Cc1noc(C)c1-c1ccc2c(c1)nc(C1CCCC(=O)N1c1ccc(F)c(F)c1)n2C1CCN(CC2CCN(c3ccc(C(=O)N[C@H]4CC[C@H](Oc5ccc(C#N)c(Cl)c5)CC4)nn3)CC2)CC1 (stereo partly drawn) [Compound 127, N-[4-(3-chloro-4-cyano-phenoxy)cyclohexyl]-6-[4-[[4-[2-[1-(3,4-difluorophenyl)-6-oxo-2-piperidyl]-5-(3,5-dimethylisoxazol-4-yl)benzimidazol-1-yl]-1-piperidyl]methyl]-1-piperidyl]pyridazine-3-carboxamide] |  | > 100 nM | > 100 nM |
| CC(=O)N1CCc2c(c(N3CCCc4cc(-c5cnn(C)c5)c(C(F)F)cc43)nn2CC2CC3(CCN(c4ccc(C(=O)N[C@H]5CC[C@H](Oc6ccc(C#N)c(Cl)c6)CC5)nn4)CC3)C2)C1 [Compound 130, 6-[2-[[5-acetyl-3-[7-(difluoromethyl)-6-(1-methylpyrazol-4-yl)-3,4-dihydro-2H-quinolin-1-yl]-6,7-dihydro-4H-pyrazolo[4,3-c]pyridin-1-yl]methyl]-7-azaspiro[3.5]nonan-7-yl]-N-[4-(3-chloro-4-cyano-phenoxy)cyclohexyl]pyridazine-3-carboxamide] |  | 0.1 to 1 nM | > 100 nM |
| Cc1cc2c(N3CCCc4cc(-c5cnn(C)c5)c(C(F)F)cc43)cc(N3CCN(CC4CCN(c5ccc(C(=O)N[C@H]6CC[C@H](Oc7ccc(C#N)c(Cl)c7)CC6)nn5)CC4)CC3)cc2n(C)c1=O [Compound 135, N-[4-(3-chloro-4-cyano-phenoxy)cyclohexyl]-6-[4-[[4-[5-[7-(difluoromethyl)-6-(1-methylpyrazol-4-yl)-3,4-dihydro-2H-quinolin-1-yl]-1,3-dimethyl-2-oxo-7-quinolyl]piperazin-1-yl]methyl]-1-piperidyl]pyridazine-3-carboxamide] |  | 0.1 to 1 nM | 1 to 10 nM |
| Cc1cc2c(N3CCN(C)c4cc(C5CC5)ncc43)cc(N3CCN(CC4CCN(c5ccc(C(=O)N[C@H]6CC[C@H](Oc7ccc(C#N)c(Cl)c7)CC6)nn5)CC4)CC3)cc2n(C)c1=O [Compound 138, N-[4-(3-chloro-4-cyano-phenoxy)cyclohexyl]-6-[4-[[4-[5-(7-cyclopropyl-1-methyl-2,3-dihydropyrido[3,4-b]pyrazin-4-yl)-1,3-dimethyl-2-oxo-7-quinolyl]piperazin-1-yl]methyl]-1-piperidyl]pyridazine-3-carboxamide] |  | 1 to 100 nM | 1 to 10 nM |
| CC(=O)N1CCc2c(c(N3CCCc4cc(-c5cnn(C)c5)c(C(F)F)cc43)nn2C2CCN(CC3CCN(c4ccc(C(=O)N[C@H]5CC[C@H](Oc6ccc(C#N)c(Cl)c6)CC5)cc4)CC3)CC2)C1 [Compound 139, 4-[4-[[4-[5-acetyl-3-[7-(difluoromethyl)-6-(1-methylpyrazol-4-yl)-3,4-dihydro-2H-quinolin-1-yl]-6,7-dihydro-4H-pyrazolo[4,3-c]pyridin-1-yl]-1-piperidyl]methyl]-1-piperidyl]-N-[4-(3-chloro-4-cyano-phenoxy)cyclohexyl] benzamide] |  | ≤ 0.1 nM | < 1 nM |
| COc1cc(O[C@H]2CC[C@H](NC(=O)c3ccc(N4CCC(CN5CCC(n6nc(N7CCCc8cc(-c9cnn(C)c9)c(C(F)F)cc87)c7c6CCN(C(C)=O)C7)CC5)CC4)cc3)CC2)ccc1C#N [Compound 140, 4-[4-[[4-[5-acetyl-3-[7-(difluoromethyl)-6-(1-methylpyrazol-4-yl)-3,4-dihydro-2H-quinolin-1-yl]-6,7-dihydro-4H-pyrazolo[4,3-c]pyridin-1-yl]-1-piperidyl]methyl]-1-piperidyl]-N-[4-(4-cyano-3-methoxy-phenoxy)cyclohexyl]benzamide] |  | ≤ 0.1 nM | < 1 nM |
| CC(=O)N1CCc2c(c(N3CCCc4cc(-c5cnn(C)c5)c(C(F)F)cc43)nn2[C@@H]2CCN(CC3CCN(c4ccc(C(=O)N[C@H]5CC[C@H](Oc6ccc(C#N)c(Cl)c6)CC5)nn4)CC3)C[C@H]2F)C1 [Compound 141, 6-[4-[[(3R,4R)-4-[5-acetyl-3-[7-(difluoromethyl)-6-(1-methylpyrazol-4-yl)-3,4-dihydro-2H-quinolin-1-yl]-6,7-dihydro-4H-pyrazolo[4,3-c]pyridin-1-yl]-3-fluoro-1-piperidyl]methyl]-1-piperidyl]-N-[4-(3-chloro-4-cyano-phenoxy)cyclohexyl]pyridazine-3-carboxamide] |  | ≤ 0.1 nM | < 1 nM |
| CC(=O)N1CCc2c(c(N3CCCc4cc(-c5cnn(C)c5)c(C(F)F)cc43)nn2[C@@H]2CCN(CC3CCN(c4ccc(C(=O)N[C@H]5CC[C@H](Oc6ccc(C#N)c(Cl)c6)CC5)nn4)CC3)C[C@@H]2F)C1 [Compound 144, 6-[4-[[(3S,4R)-4-[5-acetyl-3-[7-(difluoromethyl)-6-(1-methylpyrazol-4-yl)-3,4-dihydro-2H-quinolin-1-yl]-6,7-dihydro-4H-pyrazolo[4,3-c]pyridin-1-yl]-3-fluoro-1-piperidyl]methyl]-1-piperidyl]-N-[4-(3-chloro-4-cyano-phenoxy)cyclohexyl] pyridazine-3-carboxamide] |  | ≤ 0.1 nM | < 1 nM |
| CC(=O)N1CCc2c(c(N3CCCc4cc(-c5cnn(C)c5)c(C(F)F)cc43)nn2[C@H]2CC[C@H](CC3CCN(c4ccc(C(=O)N[C@H]5CC[C@H](Oc6ccc(C#N)c(Cl)c6)CC5)nn4)CC3)CC2)C1 [Compound 145, 6-[4-[[4-[5-acetyl-3-[7-(difluoromethyl)-6-(1-methylpyrazol-4-yl)-3,4-dihydro-2H-quinolin-1-yl]-6,7-dihydro-4H-pyrazolo[4,3-c]pyridin-1-yl]cyclohexyl]methyl]-1-piperidyl]-N-[4-(3-chloro-4-cyano-phenoxy)cyclohexyl]pyridazine-3-carboxamide] |  | 0.1 to 1 nM | < 1 nM |
| Cn1cc(-c2cc3cccc(-c4cc(C5=CCN(CC6CCN(c7ccc(C(=O)N[C@H]8CC[C@H](Oc9ccc(C#N)c(Cl)c9)CC8)nn7)CC6)CC5)c5c(c4)n(C)c(=O)n5C)c3cn2)cn1 [Compound 147, N-[4-(3-chloro-4-cyano-phenoxy)cyclohexyl]-6-[4-[[4-[1,3-dimethyl-6-[3-(1-methylpyrazol-4-yl)-8-isoquinolyl]-2-oxo-benzimidazol-4-yl]-3,6-dihydro-2H-pyridin-1-yl]methyl]-1-piperidyl]pyridazine-3-carboxamide] |  | 0.1 to 1 nM | < 1 nM |
| Cn1cc(-c2cc3c(cc2C(F)F)N(c2cc(C4=CCN(CC5CCN(c6ccc(C(=O)N[C@H]7CC[C@H](Oc8ccc(C#N)c(Cl)c8)CC7)nn6)CC5)CC4)c4c(c2)n(C)c(=O)n4C)CCC3)cn1 [Compound 148] |  | 0.1 to 1 nM | < 1 nM |
| CC(=O)N1CCc2c(c(N3CCCc4cc(-c5cnn(C)c5)c(C(F)F)cc43)nn2[C@@H]2[C@@H]3C[C@H]2CN(CC2CCN(c4ccc(C(=O)N[C@H]5CC[C@H](Oc6ccc(C#N)c(Cl)c6)CC5)nn4)CC2)C3)C1 [Compound 149, N-[4-(3-chloro-4-cyano-phenoxy)cyclohexyl]-6-[4-[[rac-(1S,5R)-6-[5-acetyl-3-[7-(difluoromethyl)-6-(1-methylpyrazol-4-yl)-3,4-dihydro-2H-quinolin-1-yl]-6,7-dihydro-4H-pyrazolo[4,3-c]pyridin-1-yl]-3-azabicyclo[3.1.1]heptan-3-yl]methyl]-1-piperidyl]pyridazine-3-carboxamide] | < 1 nM | 0.1 to 1 nM |  |
| CC(=O)N1CCc2c(c(N3CCCc4cc(-c5cnn(C)c5)c(C(F)F)cc43)nn2[C@H]2[C@@H]3C[C@H]2CN(CC2CCN(c4ccc(C(=O)N[C@H]5CC[C@H](Oc6ccc(C#N)c(Cl)c6)CC5)nn4)CC2)C3)C1 [Compound 150, N-[4-(3-chloro-4-cyano-phenoxy)cyclohexyl]-6-[4-[[rac-(1R,5S)-6-[5-acetyl-3-[7-(difluoromethyl)-6-(1-methylpyrazol-4-yl)-3,4-dihydro-2H-quinolin-1-yl]-6,7-dihydro-4H-pyrazolo[4,3-c]pyridin-1-yl]-3-azabicyclo[3.1.1]heptan-3-yl]methyl]-1-piperidyl]pyridazine-3-carboxamide] | 1 to 10 nM | 0.1 to 1 nM |  |
| CC(=O)N1CCc2c(c(N3CCCc4cc(-c5cnn(C)c5)c(C(F)F)cc43)nn2[C@@H]2C[C@H]3CC[C@@H](C2)N3CC2CCN(c3ccc(C(=O)N[C@H]4CC[C@H](Oc5ccc(C#N)c(Cl)c5)CC4)nn3)CC2)C1 [Compound 152, 6-[4-[[(1R,5S)-3-[5-acetyl-3-[7-(difluoromethyl)-6-(1-methylpyrazol-4-yl)-3,4-dihydro-2H-quinolin-1-yl]-6,7-dihydro-4H-pyrazolo[4,3-c]pyridin-1-yl]-8-azabicyclo[3.2.1]octan-8-yl]methyl]-1-piperidyl]-N-[4-(3-chloro-4-cyano-phenoxy)cyclohexyl]pyridazine-3-carboxamide] | < 1 nM | 0.1 to 1 nM |  |
